This is an account of results in ChEMBL document CHEMBL5725356, “Anti-fibrotic pyridinones” (2017).

This experiment is described as follows: ET-1 Assay: Fibroblasts (primary human lung and dermal, HFL-1, 3T3 etc) are seeded in 96-well plates at ~15000 cells/well and serum starved for 0-48 hours. After media exchange, compounds serially diluted in DMSO are added to the cells. After a brief incubation of ~30 min, stimulants (TGFb, serum, LPA etc) are added followed by further incubation for 16-48 hours. Media is then harvested and stored frozen in plate format for later endothelin-1 (ET-1) determination by ELISA. Toxicity measurements are made using the ATPlite kit (Perkin-Elmer). ET-1 is quantified using an ELISA kit (R&D Systems). The amount of ET-1 produced in the assay wells are back-calculated using the ELISA standard. The ability of a compound to inhibit ET-1 production is typically analyzed by fitting dose-response curves to a 4-parameter logistic function to obtain an EC50 value. The following applies: HFL1.
By EC50 is commonly meant the concentration giving half of the maximal effect. As for `Cn1cc(-c2c[nH]c(=O)c3[nH]nnc23)cn1`, the EC50 is above 200 µM.
Consider `COc1cc(-n2cc(-c3ccc(F)cc3)c(C)cc2=O)cc(OC)c1OC`, for which the EC50 result is “in the range around 125 µM”.
Turning to `Cn1cc(-c2cn(-c3ccc(OC(F)(F)F)cc3)c(=O)c3nnn(CCF)c23)cn1`, the EC50 is below 50 µM.
For `Cn1cc(-c2cn(-c3ccc(OC(F)(F)F)cc3)c(=O)cc2OCCN2CCS(=O)(=O)CC2)cn1` the value was above 200 µM; for `O=c1c2ccc(C(F)(F)F)nc2c(-c2ccc(F)cc2)cn1-c1ccc(OC(F)(F)F)cc1`, above 200 µM.
Consider `Cn1cc(-c2cnc(=O)n(-c3ccc(OC(F)(F)F)cc3)c2)cn1`, for which the EC50 is above 200 µM.
For the compound `Cc1cc(=O)n(-c2ccccc2NC(N)=O)cc1-c1ccc(F)cc1`, the EC50 is below 50 µM.
With `COc1cccc(-n2cc(C(F)(F)F)ccc2=O)c1`, the EC50 is above 200 µM.
Take `Cc1n[nH]c(C)c1-c1ccc(=O)n(-c2cccc(F)c2)c1`: the 50% effective concentration (EC50) is above 200 µM.
Regarding `O=c1ccc(-c2cccc(Cl)c2)cn1-c1ccccc1Cl`, the EC50 was below 50 µM.
With `Cc1cc(=O)n(-c2ccc(OC(F)(F)F)cc2)cc1-c1cnsc1`, the EC50 is above 200 µM.
For the compound `C[C@@H]1CCC(=O)N(c2ccccc2)C1`, the 50% effective concentration (EC50) is above 200 µM.
As to `CCOc1ccc(-n2cc(-c3cn[nH]c3)c3cc[nH]c3c2=O)c(C)c1`, the concentration for a half-maximal effect (EC50) was below 50 µM.
As to `O=c1cc(NCc2ccccn2)ccn1-c1ccc(OC(F)(F)F)cc1`, the EC50 is below 50 µM.
As to `Cc1cc(=O)n(-c2ccc(OC(F)(F)F)cc2)cc1-c1cccc2ncsc12`, the 50% effective concentration (EC50) is below 50 µM.
Take `Cn1cc(-c2cn(-c3ccc(OC(F)(F)F)cc3)c(=O)cc2Oc2ccc(Cl)cc2)cn1`: the EC50 is above 200 µM.
As for `COc1ccc(-n2cc(-c3cn[nH]c3)ccc2=O)cc1`, the EC50 is above 200 µM.
As to `O=c1ccc(-c2ccnnc2)cn1-c1ccc(OC(F)(F)F)cc1`, the concentration giving a half-maximal response (EC50) result was “in the range around 125 µM”.
Take `O=c1ccc(Br)cn1-c1ccc(OC(F)(F)F)cc1`: the 50% effective concentration (EC50) was above 200 µM.
With `CCOc1ccc(-n2cc(-c3c(C)n[nH]c3C)ccc2=O)c(C)c1`, the EC50 entry was “in the range around 125 µM”.
For the compound `CC(C)Oc1ccc(-n2cc(-c3ccc(S(N)(=O)=O)cc3)ccc2=O)cc1`, the EC50 is above 200 µM.
Turning to `CCC(=O)Nc1cc(=O)n(-c2ccc(OC(F)(F)F)cc2)cc1-c1ccc(F)cc1`, the EC50 was above 200 µM.
In the case of `Cc1cc(=O)n(-c2ccc(OC(F)(F)F)cc2)cc1-c1nnn(C)n1`, the EC50 was above 200 µM.
Regarding `CC(=O)c1ccc(=O)n(-c2ccccc2Cl)c1`, the 50% effective concentration (EC50) entry was “in the range around 125 µM”.
On to `COC(=O)Nc1cc(=O)n(-c2ccc(OC(F)(F)F)cc2)cc1-c1cnn(C)c1`, for which the concentration for a half-maximal effect (EC50) was above 200 µM.
For `Cc1cc(=O)n(-c2ccc(OC(F)(F)F)cc2)cc1-c1ccc2nccn2c1` the value was “in the range around 125 µM”; for `CNC(=O)c1cccc(-n2cc(-c3ccc(F)cc3)c(C)cc2=O)c1`, “in the range around 125 µM”.
For the compound `CCOc1ccc(-n2cc(-c3cnn(C)c3)c3nccnc3c2=O)c(C)c1`, the concentration for a half-maximal effect (EC50) is below 50 µM.
As for `O=c1c2nsnc2c(-c2ccc(F)cc2)cn1-c1ccc(OC(F)(F)F)cc1`, the EC50 is above 200 µM.
For `Cc1cc(=O)n(-c2ccc(Cl)cc2)cc1-c1ccc2ocnc2c1`, the EC50 was above 200 µM.
For the compound `O=c1ccc(-c2cncnc2)cn1-c1ccc(F)cc1`, the EC50 was above 200 µM.
With `CC(C)c1cc(=O)n(-c2ccc(OC(F)(F)F)cc2)cc1-c1cnn(C)c1`, the EC50 result is “in the range around 125 µM”.
With `CC(=O)Nc1cccc(-n2cc(-c3cn[nH]c3)c(C)cc2=O)c1`, the EC50 was above 200 µM.
Turning to `Cc1cc(=O)n(-c2ccc(OC(F)(F)F)cc2)cc1-c1cscn1`, the concentration for a half-maximal effect (EC50) entry was “in the range around 125 µM”.
Turning to `CCn1nc2c(-c3cn[nH]c3)cn(-c3ccc(OC(F)(F)F)cc3)c(=O)c2n1`, the EC50 is below 50 µM.
Turning to `COc1cccc(-n2cc(-c3cccc(Cl)c3)ccc2=O)c1`, the EC50 was below 50 µM.
For `Cc1cc(=O)n(-c2ccc(OC(F)(F)F)cc2)cc1-c1ccc2c(c1)OCO2` the value was “in the range around 125 µM”.
For `Cn1cnc2c(-c3ccc(F)cc3)cn(-c3ccc(OC(F)(F)F)cc3)c(=O)c21` the value was below 50 µM; for `Cn1cc(-c2cn(-c3ccc(OC(F)(F)F)cc3)c(=O)cc2C(F)(F)F)cn1`, above 200 µM; for `CNc1cc(=O)n(-c2ccc(OC(F)(F)F)cc2)cc1-c1cnn(C)c1`, above 200 µM.
For `CCOc1ccc(-n2cc(-c3cnn(C)c3)c(OC3CCOCC3)cc2=O)c(C)c1` the value was “in the range around 125 µM”; for `COCCOc1ccc(-n2cc(-c3cnn(C)c3)c(Oc3ccccc3)cc2=O)cc1`, below 50 µM; for `Cn1cc(-c2cn(-c3ccc(OC(F)(F)F)cc3)c(=O)c3nn(CCF)nc23)cn1`, below 50 µM.
Consider `CCn1ccc2ccn(-c3ccc(OC(F)(F)F)cc3)c(=O)c21`, for which the half-maximal effective concentration (EC50) was below 50 µM.
On to `CC(C)Oc1ccc(-n2cc(-c3cn[nH]c3)ccc2=O)cc1`, for which the EC50 entry was “in the range around 125 µM”.
For `CCn1nnc2c(=O)n(-c3ccc(OC(F)(F)F)cc3)cc(-c3cnn(C)c3)c21` the value was below 50 µM.
Turning to `Cc1n[nH]c(C)c1-c1ccc(=O)n(-c2ccc(Cl)cc2)c1`, the EC50 is above 200 µM.
As for `Cn1cc(-c2cn(-c3ccc(OC(F)(F)F)cc3)c(=O)cc2NCc2ccccc2)cn1`, the 50% effective concentration (EC50) was below 50 µM.
For `Cn1cc(-c2cn(-c3ccc(C#N)cc3)c(=O)c3nccnc23)cn1` the value was above 200 µM; for `O=c1ccc(-c2cn[nH]c2)cn1-c1cccc(C(F)(F)F)c1`, above 200 µM.
As to `Cn1cc(-c2cn(-c3ccc(OC(F)(F)F)cc3)c(=O)c3c2ccn3CCO)cn1`, the 50% effective concentration (EC50) was below 50 µM.
On to `Cn1cc(-c2cn(-c3ccc(OC(F)(F)F)cc3)c(=O)cc2OCCN2CCCC2)cn1`, for which the half-maximal effective concentration (EC50) result is “in the range around 125 µM”.
For `Cc1ccc(=O)n(CCc2ccccc2)c1`, the EC50 result is “in the range around 125 µM”.
With `Cc1cc(=O)n(-c2cccc3c2OCO3)cc1-c1ccc(F)cc1`, the EC50 entry was “in the range around 125 µM”.
In the case of `Cc1cc(=O)[nH]cc1-c1ccc2c(c1)OCC(=O)N2C`, the concentration giving a half-maximal response (EC50) is below 50 µM.
Turning to `CCOc1ccc(-n2cc(-c3ccc(F)cc3)ccc2=O)c(C)c1`, the EC50 is above 200 µM.
In the case of `Cn1cc(-c2ccc(=O)n(-c3ccccc3)n2)cn1`, the concentration for a half-maximal effect (EC50) was above 200 µM.
On to `O=c1ccc(-c2ccc(F)cc2)cn1-c1cccc(C(F)(F)F)c1`, for which the EC50 result was “in the range around 125 µM”.
As to `Cc1cc(=O)n(-c2cccc(NC(=O)N(C)C)c2)cc1-c1ccc(F)cc1`, the EC50 is below 50 µM.
Turning to `CCn1cnc2c(-c3cnn(C)c3)c[nH]c(=O)c21`, the EC50 entry was “in the range around 125 µM”.
Take `Cc1cc(=O)n(-c2ccccc2)cc1-c1ccc(F)cc1`: the EC50 entry is “in the range around 125 µM”.
For `COC(=O)Nc1cc(=O)n(-c2ccc(OC(F)(F)F)cc2)cc1-c1ccc(F)cc1` the value was above 200 µM.
With `Cn1cc(-c2cn(-c3ccc(OC(F)(F)F)cc3)c(=O)cc2NCc2ccc(Cl)cc2)cn1`, the concentration for a half-maximal effect (EC50) result was “in the range around 125 µM”.
On to `CCOc1ccc(-n2cc(-c3cccc(F)c3)c(C)cc2=O)c(C)c1`, for which the EC50 result was “in the range around 125 µM”.
On to `Cc1cc(=O)n(-c2ccc(OC(F)(F)F)cc2)cc1-c1ccc2c(c1)OCC(=O)N2CCO`, for which the half-maximal effective concentration (EC50) is above 200 µM.
In the case of `Cn1cc(-c2cn(-c3ccc(OC(F)(F)F)cc3)c(=O)cc2N)cn1`, the EC50 is above 200 µM.
`O=c1ccc(-c2cn[nH]c2)cn1-c1cccc(F)c1`: the EC50 is above 200 µM.
As to `O=c1ccc(-c2ccc(F)cc2)cn1Cc1ccccc1`, the EC50 is below 50 µM.
For `CCOc1ccc(-n2cc(C(C)=O)ccc2=O)c(C)c1`, the concentration giving a half-maximal response (EC50) is above 200 µM.
Take `CCOc1ccc(-n2cc(-c3cn[nH]c3)c3nccnc3c2=O)c(C)c1`: the concentration giving a half-maximal response (EC50) is below 50 µM.
For the compound `CCOc1ccc(-n2cc(-c3cnn(C)c3)c(N(C)Cc3ccccc3)cc2=O)c(C)c1`, the EC50 was below 50 µM.
As for `CC(C)n1nnc2c(-c3cnn(C)c3)cn(-c3ccc(OC(F)(F)F)cc3)c(=O)c21`, the EC50 was below 50 µM.
In the case of `N#Cc1ccc(-n2cc(-c3cn[nH]c3)c3nccnc3c2=O)cc1`, the EC50 is above 200 µM.
For `CCn1c(=O)oc2cc(-c3cn(-c4ccc(OC(F)(F)F)cc4)c(=O)cc3C)ccc21` the value was below 50 µM; for `CCOc1ccc(-n2cc(-c3cn[nH]c3)c3ncccc3c2=O)c(C)c1`, below 50 µM; for `Cc1cc(=O)n(-c2ccc(OC(F)(F)F)cc2)cc1-c1cn[nH]c1`, below 50 µM.
Regarding `CCOc1ccc(-n2cc(-c3ccnnc3)c(C)cc2=O)c(C)c1`, the EC50 is below 50 µM.
On to `CC(=O)c1ccc(=O)n(-c2ccc(F)cc2)c1`, for which the EC50 was above 200 µM.
Take `Cn1cc(-c2cn(-c3ccc(OC(F)(F)F)cc3)c(=O)cc2NCc2cnccn2)cn1`: the EC50 entry was “in the range around 125 µM”.
With `Cc1cc(=O)n(-c2ccc(OC(F)(F)F)cc2)cc1-c1ccncc1`, the concentration for a half-maximal effect (EC50) is above 200 µM.
For `Cc1cc(=O)n(-c2ccc(Cl)cc2)cc1-c1ccc(F)cc1`, the concentration giving a half-maximal response (EC50) is above 200 µM.
For `O=c1ccc(C2CCCCC2)cn1-c1ccccc1` the value was “in the range around 125 µM”.
Regarding `Cn1cc(-c2cn(-c3ccc(Cl)cc3)c(=O)c3nccnc23)cn1`, the EC50 was above 200 µM.
As for `Cc1cc(=O)n(-c2ccc(OC(F)(F)F)cc2)cc1-c1ccc(F)c(Cl)c1`, the EC50 is below 50 µM.
For `Cc1cc(=O)n(-c2ccc(OC(F)(F)F)cc2)cc1-c1ccc(F)cc1` the value was above 200 µM; for `Cn1cc(-c2cn(-c3ccccc3)c(=O)c3c2CCCC3)cn1`, below 50 µM.
In the case of `COCCOc1ccc(-n2cc(-c3cnn(C)c3)c(C)cc2=O)cc1`, the EC50 is above 200 µM.
For `COc1ccc(CNc2cc(=O)n(-c3ccc(OC(F)(F)F)cc3)cc2-c2cnn(C)c2)cc1`, the EC50 is below 50 µM.
For `Cn1cc(-c2cn(-c3ccc(OC(F)(F)F)cc3)c(=O)c3ccc(C(F)(F)F)nc23)cn1` the value was below 50 µM; for `Cc1cc(=O)n(-c2ccc(OC(F)(F)F)cc2)cc1-c1cn(C)nc1C(F)(F)F`, “in the range around 125 µM”.
